# Patent US10004701B2, “Methods and compositions for treating infection” (UNIVERSITY OF ROCHESTER, priority 2012, dated 2018)
# Counter-ions that a name gives are not always drawn. Like-named read-outs stand apart in the source and are kept apart here.
# Columns and labels:
# Assay in all cases: AK assay 384-well format, Prestwick library screening
# P. aeruginosa = format: cell-based, Pseudomonas aeruginosa; details: Pseudomonas aeruginosa, 3 h
# [1] = test system: A. baumannii strain 98-37-09; format: cell-based, Acinetobacter baumannii; details: Acinetobacter baumannii, 983709, 3 h
# E. coli = format: cell-based, Escherichia coli; details: Escherichia coli, 3 h
# [2] = test system: S. aureus strain USA300-0114; format: cell-based, Staphylococcus aureus; details: Staphylococcus aureus, USA300, 3 h
# E. faecium = format: cell-based, Enterococcus faecium; details: Enterococcus faecium, 3 h
# K. pneumoniae = format: cell-based, Klebsiella pneumoniae; details: Klebsiella pneumoniae, 3 h
# E. cloacae = format: cell-based, Enterobacter cloacae; details: Enterobacter cloacae, 3 h
structure (smiles),measurement,setting,value
[H]/N=C(/N)N/C(=N/[H])NCCc1ccccc1 [Phenformin hydrochloride],fold induction at 50 µM,"P. aeruginosa; 50 μM final drug concentration, 384-well format, cutoff for positive-scoring molecules 3-fold increase, read-out: AK-based Prestwick Library Screening Results, P. aeruginosa (increase in extracellular AK activity)",0.7
same,fold induction at 50 µM,"[1]; 50 μM final drug concentration, 384-well format, cutoff for positive-scoring molecules 3-fold increase, read-out: AK-based Prestwick Library Screening Results, A. baumannii (increase in extracellular AK activity)",0.8
same,fold induction at 50 µM,"E. coli; 50 μM final drug concentration, 384-well format, cutoff for positive-scoring molecules 3-fold increase, read-out: AK-based Prestwick Library Screening Results, E. coli (increase in extracellular AK activity)",0.8
same,fold induction at 50 µM,"[2]; 50 μM final drug concentration, 384-well format, cutoff for positive-scoring molecules 3-fold increase, read-out: AK-based Prestwick Library Screening Results, S. aureus (increase in extracellular AK activity)",0.7
same,fold induction at 50 µM,"E. faecium; 50 μM final drug concentration, 384-well format, cutoff for positive-scoring molecules 3-fold increase, read-out: AK-based Prestwick Library Screening Results, E. faecium (increase in extracellular AK activity)",1
same,fold induction at 50 µM,"K. pneumoniae; 50 μM final drug concentration, 384-well format, cutoff for positive-scoring molecules 3-fold increase, read-out: AK-based Prestwick Library Screening Results, K. pneumoniae (increase in extracellular AK activity)",0.6
same,fold induction at 50 µM,"E. cloacae; 50 μM final drug concentration, 384-well format, cutoff for positive-scoring molecules 3-fold increase, read-out: AK-based Prestwick Library Screening Results, E. cloacae (increase in extracellular AK activity)",0.8
O=C1c2ccccc2C(=O)C1c1ccccc1 [Phenindione],fold induction at 50 µM,"P. aeruginosa; 50 μM final drug concentration, planktonic, cutoff for positive 3-fold increase, read-out: AK-based Prestwick Library Screening Results, P. aeruginosa (fold increase in extracellular AK activity)",0.9
same,fold induction at 50 µM,"[1]; 50 μM final drug concentration, planktonic, cutoff for positive 3-fold increase, read-out: AK-based Prestwick Library Screening Results, A. baumannii (fold increase in extracellular AK activity)",1.1
same,fold induction at 50 µM,"E. coli; 50 μM final drug concentration, planktonic, cutoff for positive 3-fold increase, read-out: AK-based Prestwick Library Screening Results, E. coli (fold increase in extracellular AK activity)",1.2
same,fold induction at 50 µM,"[2]; 50 μM final drug concentration, planktonic, cutoff for positive 3-fold increase, read-out: AK-based Prestwick Library Screening Results, S. aureus (fold increase in extracellular AK activity)",1.1
same,fold induction at 50 µM,"E. faecium; 50 μM final drug concentration, planktonic, cutoff for positive 3-fold increase, read-out: AK-based Prestwick Library Screening Results, E. faecium (fold increase in extracellular AK activity)",0.9
same,fold induction at 50 µM,"K. pneumoniae; 50 μM final drug concentration, planktonic, cutoff for positive 3-fold increase, read-out: AK-based Prestwick Library Screening Results, K. pneumoniae (fold increase in extracellular AK activity)",1.1
same,fold induction at 50 µM,"E. cloacae; 50 μM final drug concentration, planktonic, cutoff for positive 3-fold increase, read-out: AK-based Prestwick Library Screening Results, E. cloacae (fold increase in extracellular AK activity)",1.3
CN(C)CCC(c1ccccc1)c1ccccn1 (centres unmarked) [Pheniramine maleate],fold induction at 50 µM,"P. aeruginosa; planktonic P. aeruginosa, 50 μM final drug concentration, 384-well, […], read-out: AK-based Prestwick Library Screening Results: P. aeruginosa (increase in extracellular AK activity)",1
same,fold induction at 50 µM,"[1]; planktonic A. baumannii, 50 μM final drug concentration, 384-well, […], read-out: AK-based Prestwick Library Screening Results: A. baumannii (increase in extracellular AK activity)",1
same,fold induction at 50 µM,"E. coli; planktonic E. coli, 50 μM final drug concentration, 384-well, […], read-out: AK-based Prestwick Library Screening Results: E. coli (increase in extracellular AK activity)",1.4
same,fold induction at 50 µM,"[2]; planktonic S. aureus, 50 μM final drug concentration, 384-well, […], read-out: AK-based Prestwick Library Screening Results: S. aureus (increase in extracellular AK activity)",1
same,fold induction at 50 µM,"E. faecium; planktonic E. faecium, 50 μM final drug concentration, 384-well, […], read-out: AK-based Prestwick Library Screening Results: E. faecium (increase in extracellular AK activity)",1
same,fold induction at 50 µM,"K. pneumoniae; planktonic K. pneumoniae, 50 μM final drug concentration, 384-well, […], read-out: AK-based Prestwick Library Screening Results: K. pneumoniae (increase in extracellular AK activity)",1
same,fold induction at 50 µM,"E. cloacae; planktonic E. cloacae, 50 μM final drug concentration, 384-well, […], read-out: AK-based Prestwick Library Screening Results: E. cloacae (increase in extracellular AK activity)",1.7
CC(COc1ccccc1)N(CCCl)Cc1ccccc1 (centres unmarked) [Phenoxybenzamine hydrochloride],fold induction at 50 µM,"P. aeruginosa; 50 μM final drug concentration, […], read-out: AK-based Prestwick Library Screening Results, P. aeruginosa (fold increase in extracellular AK activity)",1.1
same,fold induction at 50 µM,"[1]; 50 μM final drug concentration, […], read-out: AK-based Prestwick Library Screening Results, A. baumannii (fold increase in extracellular AK activity)",1.3
same,fold induction at 50 µM,"E. coli; 50 μM final drug concentration, […], read-out: AK-based Prestwick Library Screening Results, E. coli (fold increase in extracellular AK activity)",1.4
same,fold induction at 50 µM,"[2]; 50 μM final drug concentration, […], read-out: AK-based Prestwick Library Screening Results, S. aureus (fold increase in extracellular AK activity)",1.1
same,fold induction at 50 µM,"E. faecium; 50 μM final drug concentration, […], read-out: AK-based Prestwick Library Screening Results, E. faecium (fold increase in extracellular AK activity)",0.9
same,fold induction at 50 µM,"K. pneumoniae; 50 μM final drug concentration, […], read-out: AK-based Prestwick Library Screening Results, K. pneumoniae (fold increase in extracellular AK activity)",1.2
same,fold induction at 50 µM,"E. cloacae; 50 μM final drug concentration, […], read-out: AK-based Prestwick Library Screening Results, E. cloacae (fold increase in extracellular AK activity)",1.4
CN1C(=O)CC(c2ccccc2)C1=O (centres unmarked) [Phensuximide],fold induction at 50 µM,"P. aeruginosa; planktonic P. aeruginosa, 50 μM final drug concentration, […], read-out: AK-based Prestwick library screening result, P. aeruginosa (fold increase in extracellular AK activity)",0.7
same,fold induction at 50 µM,"[1]; planktonic A. baumannii, 50 μM final drug concentration, […], read-out: AK-based Prestwick library screening result, A. baumannii (fold increase in extracellular AK activity)",0.8
same,fold induction at 50 µM,"E. coli; planktonic E. coli, 50 μM final drug concentration, […], read-out: AK-based Prestwick library screening result, E. coli (fold increase in extracellular AK activity)",1
same,fold induction at 50 µM,"[2]; planktonic S. aureus, 50 μM final drug concentration, […], read-out: AK-based Prestwick library screening result, S. aureus (fold increase in extracellular AK activity)",0.7
same,fold induction at 50 µM,"E. faecium; planktonic E. faecium, 50 μM final drug concentration, […], read-out: AK-based Prestwick library screening result, E. faecium (fold increase in extracellular AK activity)",0.9
same,fold induction at 50 µM,"K. pneumoniae; planktonic K. pneumoniae, 50 μM final drug concentration, […], read-out: AK-based Prestwick library screening result, K. pneumoniae (fold increase in extracellular AK activity)",0.8
same,fold induction at 50 µM,"E. cloacae; planktonic E. cloacae, 50 μM final drug concentration, […], read-out: AK-based Prestwick library screening result, E. cloacae (fold increase in extracellular AK activity)",1.1
Cc1ccc(N(CC2=NCCN2)c2cccc(O)c2)cc1 [Phentolamine hydrochloride],fold induction at 50 µM,"P. aeruginosa; planktonic P. aeruginosa, 50 μM final drug concentration, 384-well, cutoff for positive-scoring molecules 3-fold increase, read-out: AK-based Prestwick Library Screening Results: P. aeruginosa (increase in extracellular AK activity)",1.2
same,fold induction at 50 µM,"[1]; planktonic A. baumannii, 50 μM final drug concentration, 384-well, cutoff for positive-scoring molecules 3-fold increase, read-out: AK-based Prestwick Library Screening Results: A. baumannii (increase in extracellular AK activity)",1.4
same,fold induction at 50 µM,"E. coli; planktonic E. coli, 50 μM final drug concentration, 384-well, cutoff for positive-scoring molecules 3-fold increase, read-out: AK-based Prestwick Library Screening Results: E. coli (increase in extracellular AK activity)",1.4
same,fold induction at 50 µM,"[2]; planktonic S. aureus, 50 μM final drug concentration, 384-well, cutoff for positive-scoring molecules 3-fold increase, read-out: AK-based Prestwick Library Screening Results: S. aureus (increase in extracellular AK activity)",1.1
same,fold induction at 50 µM,"E. faecium; planktonic E. faecium, 50 μM final drug concentration, 384-well, cutoff for positive-scoring molecules 3-fold increase, read-out: AK-based Prestwick Library Screening Results: E. faecium (increase in extracellular AK activity)",1
same,fold induction at 50 µM,"K. pneumoniae; planktonic K. pneumoniae, 50 μM final drug concentration, 384-well, cutoff for positive-scoring molecules 3-fold increase, read-out: AK-based Prestwick Library Screening Results: K. pneumoniae (increase in extracellular AK activity)",1.1
same,fold induction at 50 µM,"E. cloacae; planktonic E. cloacae, 50 μM final drug concentration, 384-well, cutoff for positive-scoring molecules 3-fold increase, read-out: AK-based Prestwick Library Screening Results: E. cloacae (increase in extracellular AK activity)",1.2
CC(N)C(O)c1ccccc1 (centres unmarked) [Phenylpropanolamine hydrochloride],fold induction at 50 µM,P. aeruginosa; read-out: AK-based Prestwick Library Screening Results: P. aeruginosa (increase in extracellular AK activity),0.4
same,fold induction at 50 µM,[1]; read-out: AK-based Prestwick Library Screening Results: A. baumannii (increase in extracellular AK activity),0.4
same,fold induction at 50 µM,E. coli; read-out: AK-based Prestwick Library Screening Results: E. coli (increase in extracellular AK activity),0.5
same,fold induction at 50 µM,[2]; read-out: AK-based Prestwick Library Screening Results: S. aureus (increase in extracellular AK activity),0.3
same,fold induction at 50 µM,E. faecium; read-out: AK-based Prestwick Library Screening Results: E. faecium (increase in extracellular AK activity),0.8
same,fold induction at 50 µM,K. pneumoniae; read-out: AK-based Prestwick Library Screening Results: K. pneumoniae (increase in extracellular AK activity),0.5
same,fold induction at 50 µM,E. cloacae; read-out: AK-based Prestwick Library Screening Results: E. cloacae (increase in extracellular AK activity),0.4
O=C(O)c1ccccc1C(=O)Nc1ccc(S(=O)(=O)Nc2nccs2)cc1 [Phthalylsulfathiazole],fold induction at 50 µM,"P. aeruginosa; 50 μM final drug concentration, cutoff for positive-scoring molecules 3-fold increase, read-out: AK-based Prestwick Library Screening Results, P. aeruginosa (fold increase in extracellular AK activity)",1
same,fold induction at 50 µM,"[1]; 50 μM final drug concentration, cutoff for positive-scoring molecules 3-fold increase, read-out: AK-based Prestwick Library Screening Results, A. baumannii (fold increase in extracellular AK activity)",1.4
same,fold induction at 50 µM,"E. coli; 50 μM final drug concentration, cutoff for positive-scoring molecules 3-fold increase, read-out: AK-based Prestwick Library Screening Results, E. coli (fold increase in extracellular AK activity)",1.4
same,fold induction at 50 µM,"[2]; 50 μM final drug concentration, cutoff for positive-scoring molecules 3-fold increase, read-out: AK-based Prestwick Library Screening Results, S. aureus (fold increase in extracellular AK activity)",1.4
same,fold induction at 50 µM,"E. faecium; 50 μM final drug concentration, cutoff for positive-scoring molecules 3-fold increase, read-out: AK-based Prestwick Library Screening Results, E. faecium (fold increase in extracellular AK activity)",1
same,fold induction at 50 µM,"K. pneumoniae; 50 μM final drug concentration, cutoff for positive-scoring molecules 3-fold increase, read-out: AK-based Prestwick Library Screening Results, K. pneumoniae (fold increase in extracellular AK activity)",1
same,fold induction at 50 µM,"E. cloacae; 50 μM final drug concentration, cutoff for positive-scoring molecules 3-fold increase, read-out: AK-based Prestwick Library Screening Results, E. cloacae (fold increase in extracellular AK activity)",1.2
